Results on 27 compounds are retold here after ChEMBL document CHEMBL5291721, “A preclinical secondary pharmacology resource illuminates target-adverse drug reaction associations of marketed drugs” (Nat Commun, 2023).

Each structure is given as a SMILES string.

One assay has as its target T1, B2 bradykinin receptor (Homo sapiens, UniProt P30411).
T1 sequence (P30411 whole entry): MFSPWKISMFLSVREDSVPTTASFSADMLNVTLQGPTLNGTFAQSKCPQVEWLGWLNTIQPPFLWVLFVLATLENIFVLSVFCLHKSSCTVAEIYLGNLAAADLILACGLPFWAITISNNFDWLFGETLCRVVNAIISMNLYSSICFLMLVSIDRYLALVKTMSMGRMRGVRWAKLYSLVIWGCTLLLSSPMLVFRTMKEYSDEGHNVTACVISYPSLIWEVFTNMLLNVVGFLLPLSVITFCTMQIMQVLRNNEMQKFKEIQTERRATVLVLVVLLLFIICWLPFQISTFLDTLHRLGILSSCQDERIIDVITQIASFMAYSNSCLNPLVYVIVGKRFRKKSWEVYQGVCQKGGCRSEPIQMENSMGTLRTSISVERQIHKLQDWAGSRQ

The target in assay [1] is T2, Muscarinic acetylcholine receptor M2 (Homo sapiens, UniProt P08172).
T2 sequence (P08172 whole entry): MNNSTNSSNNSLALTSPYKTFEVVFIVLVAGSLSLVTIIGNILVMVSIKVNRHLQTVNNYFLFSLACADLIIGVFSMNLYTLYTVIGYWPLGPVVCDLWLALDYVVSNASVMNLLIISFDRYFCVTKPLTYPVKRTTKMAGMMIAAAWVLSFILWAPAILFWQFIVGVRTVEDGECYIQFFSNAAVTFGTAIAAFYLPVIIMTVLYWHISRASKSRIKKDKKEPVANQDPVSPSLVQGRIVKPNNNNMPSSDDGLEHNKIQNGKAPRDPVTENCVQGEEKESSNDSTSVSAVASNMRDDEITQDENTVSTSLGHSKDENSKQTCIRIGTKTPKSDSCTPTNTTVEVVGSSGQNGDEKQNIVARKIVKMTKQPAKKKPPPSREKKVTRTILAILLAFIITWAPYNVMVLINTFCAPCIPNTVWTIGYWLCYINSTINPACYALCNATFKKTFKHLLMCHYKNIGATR
The assay is classed as functional, cell-based.

Another assay addresses T3, Endothelin-1 receptor (Homo sapiens, UniProt P25101).
T3 sequence (P25101 whole entry): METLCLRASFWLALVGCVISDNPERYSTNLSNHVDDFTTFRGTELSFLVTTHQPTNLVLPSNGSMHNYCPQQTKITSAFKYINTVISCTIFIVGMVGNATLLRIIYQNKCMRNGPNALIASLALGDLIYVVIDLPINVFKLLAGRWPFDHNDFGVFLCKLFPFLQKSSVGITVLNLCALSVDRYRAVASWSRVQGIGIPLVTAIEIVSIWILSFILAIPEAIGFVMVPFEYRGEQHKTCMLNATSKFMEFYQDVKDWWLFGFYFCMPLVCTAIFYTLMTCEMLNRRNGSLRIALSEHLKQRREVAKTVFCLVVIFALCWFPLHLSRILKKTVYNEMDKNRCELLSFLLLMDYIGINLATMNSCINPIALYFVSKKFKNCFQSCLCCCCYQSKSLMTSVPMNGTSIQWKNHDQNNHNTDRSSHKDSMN

The target of assay [2] is T4, Equilibrative nucleoside transporter 1 (Homo sapiens, UniProt Q99808).
T4 sequence (Q99808 whole entry): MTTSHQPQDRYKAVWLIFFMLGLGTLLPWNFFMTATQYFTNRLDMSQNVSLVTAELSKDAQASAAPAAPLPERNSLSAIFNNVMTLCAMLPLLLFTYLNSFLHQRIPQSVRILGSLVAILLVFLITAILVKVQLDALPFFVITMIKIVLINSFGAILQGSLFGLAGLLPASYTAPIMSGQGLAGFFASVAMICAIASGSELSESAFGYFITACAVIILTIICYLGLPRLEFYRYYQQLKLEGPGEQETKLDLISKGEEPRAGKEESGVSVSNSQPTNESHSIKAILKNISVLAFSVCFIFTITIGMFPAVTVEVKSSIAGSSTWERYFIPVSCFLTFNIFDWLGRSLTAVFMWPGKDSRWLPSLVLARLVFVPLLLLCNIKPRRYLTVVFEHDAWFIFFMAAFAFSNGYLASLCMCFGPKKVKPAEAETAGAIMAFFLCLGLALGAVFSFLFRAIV

In another assay the target is T5, Adenosine receptor A1 (Homo sapiens, UniProt P30542).
T5 sequence (P30542 whole entry): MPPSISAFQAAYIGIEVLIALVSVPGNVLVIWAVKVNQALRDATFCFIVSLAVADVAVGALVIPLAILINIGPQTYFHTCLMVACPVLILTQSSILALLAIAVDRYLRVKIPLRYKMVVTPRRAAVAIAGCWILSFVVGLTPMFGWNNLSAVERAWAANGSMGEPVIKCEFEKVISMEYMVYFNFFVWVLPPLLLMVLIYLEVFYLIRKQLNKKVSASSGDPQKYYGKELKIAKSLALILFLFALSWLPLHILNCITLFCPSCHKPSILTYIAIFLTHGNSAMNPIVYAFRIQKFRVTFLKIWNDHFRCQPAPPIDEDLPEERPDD

For another assay, the target named is T6, Glucocorticoid receptor (Homo sapiens, UniProt P04150).
T6 sequence (P04150 whole entry): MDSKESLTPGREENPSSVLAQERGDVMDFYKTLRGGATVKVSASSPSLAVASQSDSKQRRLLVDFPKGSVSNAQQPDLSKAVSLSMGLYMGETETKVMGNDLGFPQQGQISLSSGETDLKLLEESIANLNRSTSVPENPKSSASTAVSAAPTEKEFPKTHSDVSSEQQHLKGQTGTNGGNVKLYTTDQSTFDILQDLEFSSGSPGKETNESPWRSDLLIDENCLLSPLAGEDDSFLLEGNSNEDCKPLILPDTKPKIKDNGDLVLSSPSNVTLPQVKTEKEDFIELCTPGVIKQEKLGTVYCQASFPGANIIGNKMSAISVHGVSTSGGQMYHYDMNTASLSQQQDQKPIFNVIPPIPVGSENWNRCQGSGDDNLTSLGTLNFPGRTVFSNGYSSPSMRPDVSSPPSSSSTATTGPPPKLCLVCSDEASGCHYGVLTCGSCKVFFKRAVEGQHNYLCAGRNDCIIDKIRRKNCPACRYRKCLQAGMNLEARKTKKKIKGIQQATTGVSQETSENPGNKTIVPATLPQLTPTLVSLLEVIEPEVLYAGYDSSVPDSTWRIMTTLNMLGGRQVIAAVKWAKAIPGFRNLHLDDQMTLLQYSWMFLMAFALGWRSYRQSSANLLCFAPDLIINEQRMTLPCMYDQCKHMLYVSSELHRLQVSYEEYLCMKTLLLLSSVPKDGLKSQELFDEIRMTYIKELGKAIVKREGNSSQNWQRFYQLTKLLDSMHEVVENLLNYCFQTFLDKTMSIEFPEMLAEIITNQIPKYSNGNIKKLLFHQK
Further: assay procedure not described here.

One may read the AC50 as the midpoint of the concentration-response curve, whichever way the signal moves. The low end stands for greater potency, the high end for weaker potency. For the compound `CC[C@@H](C(N)=O)N1CCCC1=O`, the AC50 (on B2 bradykinin receptor; in assay [1]; on Endothelin-1 receptor; in assay [2]) was above 30 µM in each case.

Regarding `CCC(CC)(CC(=O)Nc1cccc(/C=C/c2nc(C3CCC3)cs2)c1)C(=O)O`, the concentration at half-maximal activity (AC50) (at Adenosine receptor A1; at B2 bradykinin receptor; at Endothelin-1 receptor; in assay [2]) was above 30 µM each time.

At Adenosine receptor A1, `Nc1ccncc1N` [AMIFAMPRIDINE] showed an AC50 above 30 µM.

On to `CCCC1O[C@@H]2C[C@H]3[C@@H]4CCC5=CC(=O)C=C[C@]5(C)[C@H]4[C@@H](O)C[C@]3(C)[C@]2(C(=O)CO)O1` (some centres not stated) [BUDESONIDE], for which the AC50 (at B2 bradykinin receptor; in assay [1]; in assay [2]) was above 10 µM in each case.

In the case of `C=CCN1C[C@H](C(=O)N(CCCN(C)C)C(=O)NCC)C[C@@H]2c3cccc4[nH]cc(c34)C[C@H]21` [CABERGOLINE], the half-maximal activity concentration (AC50) was above 10 µM on B2 bradykinin receptor, above 30 µM in assay [1], above 10 µM on Glucocorticoid receptor and above 30 µM in assay [2].

The compound `CC(=O)OCC1=C(C(=O)O)N2C(=O)[C@@H](NC(=O)[C@H](N)c3ccccc3)[C@H]2SC1` [CEPHALOGLYCIN] displayed an AC50 at Adenosine receptor A1 above 30 µM.

As for `NC1CCN(c2c(F)cc3c(=O)c(C(=O)O)cn(C4CC4)c3c2Cl)C1` (configuration not stated) [CLINAFLOXACIN], the AC50 at Endothelin-1 receptor is above 300 µM.

In the case of `CN1CCN(C2=Nc3ccccc3Sc3ccc(Cl)cc32)CC1` [CLOTHIAPINE], the AC50 (at Adenosine receptor A1; in assay [1]) was above 30 µM in each case.

Regarding `CN(C)CCC=C1c2ccccc2C=Cc2ccccc21` [CYCLOBENZAPRINE], the AC50 (on B2 bradykinin receptor; on Endothelin-1 receptor; at Glucocorticoid receptor; in assay [2]) was above 30 µM each time.

Turning to `CCOc1ccc(Cc2cc([C@@H]3O[C@H](CO)[C@@H](O)[C@H](O)[C@H]3O)ccc2Cl)cc1` [DAPAGLIFLOZIN], the half-maximal activity concentration (AC50) (at B2 bradykinin receptor; on Glucocorticoid receptor; in assay [2]) was above 30 µM each time.

As to `CN(C)CC/C=C1\c2ccccc2CSc2ccccc21` [DOTHIEPIN], the concentration at half-maximal activity (AC50) (at B2 bradykinin receptor; in assay [1]; on Endothelin-1 receptor; at Glucocorticoid receptor) was above 30 µM in each case.

For the compound `CC[C@H]1CN2CCc3cc(OC)c(OC)cc3[C@@H]2C[C@@H]1C[C@H]1NCCc2cc(OC)c(OC)cc21` [EMETINE], the concentration at half-maximal activity (AC50) (on Adenosine receptor A1; at B2 bradykinin receptor; in assay [1]; on Endothelin-1 receptor; at Glucocorticoid receptor; in assay [2]) was above 30 µM throughout.

For `COc1ccc(C(=O)Nc2ccccc2CCC2CCCCN2C)cc1` (configuration not stated) [ENCAINIDE], the concentration at half-maximal activity (AC50) at B2 bradykinin receptor was above 30 µM; in assay [1], above 10 µM; at Endothelin-1 receptor, above 30 µM; at Glucocorticoid receptor, above 30 µM; in assay [2], above 30 µM.

For the compound `Clc1cc(Cl)c(OCC#CI)cc1Cl` [HALOPROGIN], the half-maximal activity concentration (AC50) on Adenosine receptor A1 was found to be 15.4 µM.

On to `O=[N+]([O-])O[C@@H]1CO[C@H]2[C@@H]1OC[C@@H]2O` [ISOSORBIDE MONONITRATE], for which the AC50 at Adenosine receptor A1 is above 30 µM; at B2 bradykinin receptor it was above 30 µM; in assay [1] it was above 10 µM; on Endothelin-1 receptor, above 30 µM; on Glucocorticoid receptor, above 30 µM; in assay [2] it was above 30 µM.

On to `Cc1cc(C)c(NC(=O)CN(CC(=O)O)CC(=O)O)c(C)c1Br` [MEBROFENIN], for which the AC50 (on Adenosine receptor A1; in assay [1]) was above 30 µM each time.

With `COc1ccccc1N1CCN(CC(O)COc2cccc3ccccc23)CC1` (configuration not stated) [NAFTOPIDIL], the AC50 on Adenosine receptor A1 was above 30 µM; in assay [1], above 30 µM; at Glucocorticoid receptor, 8.9 µM; in assay [2], 13 µM.

Take `CC(C)(C)C(=O)OCOC(=O)[C@@H]1N2C(=O)[C@@H](NC(=O)[C@H](N)c3ccccc3)[C@H]2SC1(C)C` [PIVAMPICILLIN]: on Adenosine receptor A1, the concentration at half-maximal activity (AC50) was above 30 µM.

In the case of `COc1cc2nc(N3CCN(C(=O)c4ccco4)CC3)nc(N)c2cc1OC` [PRAZOSIN], the half-maximal activity concentration (AC50) was above 30 µM at Adenosine receptor A1; above 30 µM on B2 bradykinin receptor; above 10 µM in assay [1]; above 30 µM on Endothelin-1 receptor; above 30 µM on Glucocorticoid receptor; above 30 µM in assay [2].

In the case of `O=[N+]([O-])c1cn2c(n1)OC[C@@H](OCc1ccc(OC(F)(F)F)cc1)C2` [PRETOMANID], the AC50 (at B2 bradykinin receptor; at Endothelin-1 receptor; in assay [2]) was above 30 µM throughout.

As to `Cc1oc(=O)oc1CN1CCN(c2cc3c(cc2F)c(=O)c(C(=O)O)c2n3C(C)S2)CC1` (configuration not stated) [PRULIFLOXACIN], the AC50 (on Adenosine receptor A1; in assay [1]) was above 30 µM in each case.

`O=C(Oc1ccc2c(c1)CCCN2C(=O)C(Cl)Cl)c1ccco1` [QUINFAMIDE] displayed a concentration at half-maximal activity (AC50) at Adenosine receptor A1 of 29.4 µM.

`CCCCS(=O)(=O)N[C@@H](Cc1ccc(OCCCCC2CCNCC2)cc1)C(=O)O` [TIROFIBAN]: on Adenosine receptor A1, the half-maximal activity concentration (AC50) was above 30 µM.

For the compound `COC1=C(OC)C(=O)C(C/C=C(\C)CC/C=C(\C)CC/C=C(\C)CC/C=C(\C)CC/C=C(\C)CC/C=C(\C)CC/C=C(\C)CC/C=C(\C)CC/C=C(\C)CCC=C(C)C)=C(C)C1=O` [UBIDECARENONE], the half-maximal activity concentration (AC50) (on Adenosine receptor A1; in assay [1]) was above 30 µM each time.

As for `C=CCCCCCCCCC(=O)O` [UNDECYLENIC ACID], the concentration at half-maximal activity (AC50) at Adenosine receptor A1 was above 30 µM.

As to `CCOc1ccccc1OCC1CNCCO1` (configuration not stated) [VILOXAZINE], the AC50 is above 30 µM at B2 bradykinin receptor; above 10 µM in assay [1]; above 30 µM on Endothelin-1 receptor; above 30 µM on Glucocorticoid receptor; above 30 µM in assay [2].

Regarding `CN(C)CCc1c[nH]c2ccc(C[C@H]3COC(=O)N3)cc12` [ZOLMITRIPTAN], the AC50 (at B2 bradykinin receptor; in assay [1]; on Endothelin-1 receptor; at Glucocorticoid receptor; in assay [2]) was above 30 µM throughout.
